{
  "source": "patent US20100284985A1",
  "about": "“Composition” (Danisco A/S, priority 2007, published 2010)",
  "assay_in_all_cases": "MIC assay, LAE",
  "assay_type_in_all_cases": "cell-based",
  "key": {"[1]": {"test_system": "Bacillus cereus DCS 500", "method": "(§1) The Minimal Inhibition Concentration Assay (MIC) is a 96 well liquid based assay developed for a semi-automated assessment system and performed essentially as described in (7). […] From an overnight culture […] of each strain was inoculated in one well corresponding to an approximate inoculation density of 10^3-10^4 cells/well. Media used were CASO, MRS and YM (Appendix 1). Strains were incubated at 20° C., 25° C., 37° C. and under aerobic/anaerobic conditions depending on the preferred conditions for the particular strain (Appendix 1). At time zero, after adding the AM, the optical density (O.D.) of the bacterial culture is measured at 620 nm and then again after 24 hours. […] MIC is defined as the lowest concentration of the AM that will inhibit measurable growth. A bacteriostatic effect is defined as the OD620 at 24 h being less than or equal to 20% of the growth control."}, "[2]": {"test_system": "Bacillus licheniformis (spores) DCS 561sp", "conditions": "ppm of the active component", "method": "as §1"}, "[3]": {"test_system": "Bacillus licheniformis DCS 561", "method": "as §1"}, "[4]": {"test_system": "Bacillus weihenstephanensis DCS 565", "method": "as §1"}, "[5]": {"test_system": "Brochothrix thermosphacta DCS 780", "method": "as §1"}, "[6]": {"test_system": "Candida pulcherrima H117", "conditions": "ppm of the active component", "method": "as §1"}, "[7]": {"test_system": "Candida tropicalis DCS 604", "method": "as §1"}, "[8]": {"test_system": "Citrobacter freundii DCS 566", "method": "as §1"}, "[9]": {"test_system": "Clostridium algidicarnis DCS 563", "method": "as §1"}, "[10]": {"test_system": "Clostridium sporogenes (spores) DCS 541sp", "conditions": "ppm of the active component", "method": "as §1"}, "[11]": {"test_system": "Clostridium sporogenes (spores) DCS 808sp", "conditions": "ppm of the active component", "method": "as §1"}, "[12]": {"test_system": "Clostridium sporogenes (spores) DCS 812sp", "conditions": "ppm of the active component", "method": "as §1"}, "[13]": {"test_system": "Clostridium sporogenes DCS 541", "method": "as §1"}, "[14]": {"test_system": "Clostridium sporogenes DCS 808", "method": "as §1"}, "[15]": {"test_system": "Clostridium sporogenes DCS 812", "method": "as §1"}, "[16]": {"test_system": "Debaryomyces hansenii DCS 605", "method": "as §1"}, "[17]": {"test_system": "Escherichia coli DCS 497", "method": "as §1"}, "[18]": {"test_system": "Hafnia alvei DCS 613", "method": "as §1"}, "[19]": {"test_system": "Klebsiella oxytoca DCS 567", "method": "as §1"}, "[20]": {"test_system": "Lactobacilllus farciminis DCS 611", "conditions": "ppm of the active component", "method": "as §1"}, "[21]": {"conditions": "Bacillus cereus, DCS500, ppm of the active component"}, "[22]": {"conditions": "Bacillus licheniformis, DCS561, ppm of the active component"}, "[23]": {"conditions": "Bacillus mycoides, DCS565, ppm of the active component"}, "[24]": {"conditions": "Brochothrix thermosphacta, DCS780, ppm of the active component"}, "[25]": {"conditions": "Candida tropicalis, DCS604, ppm of the active component"}, "[26]": {"conditions": "Citrobacter freundii, DCS566, ppm of the active component"}, "[27]": {"conditions": "Clostridium algidicarnis, DCS563, ppm of the active component"}, "[28]": {"conditions": "Clostridium sporogenes, DCS541, ppm of the active component"}, "[29]": {"conditions": "Clostridium sporogenes, DCS808, ppm of the active component"}, "[30]": {"conditions": "Clostridium sporogenes, DCS812, ppm of the active component"}, "[31]": {"conditions": "Debaryomyces hansenii, DCS605, ppm of the active component"}, "[32]": {"conditions": "Escherichia coli, DCS497, ppm of the active component"}, "[33]": {"conditions": "Hafnia alvei, DCS613, ppm of the active component"}, "[34]": {"conditions": "Klebsiella oxytoca, DCS567, ppm of the active component"}},
  "data": [
    {"smiles": "CCCCCCCCCCCC(=O)N[C@@H](CCCNC(=N)N)C(=O)OCC.Cl", "note": "[LAE, N^α-Lauroyl-L-arginine ethyl ester monohydrochloride]", "values": [
      {"measurement": "MBC", "setting": "[1]; [21]", "value": 14.6, "unit": "µg/mL"},
      {"measurement": "MIC", "setting": "[1]; [21]", "value": 12.1, "unit": "µg/mL"},
      {"measurement": "increased lag phase", "setting": "[1]; ppm of the active component", "value": 6.5, "unit": "ppm"},
      {"measurement": "MBC", "setting": "[2]; Bacillus licheniformis", "value": 61.5, "unit": "µg/mL"},
      {"measurement": "MIC", "setting": "[2]; Bacillus licheniformis", "value": 6.5, "unit": "µg/mL"},
      {"measurement": "increased lag phase", "setting": "[2]", "value": 6.5, "unit": "ppm"},
      {"measurement": "MBC", "setting": "[3]; [22]", "value": 14.6, "unit": "µg/mL"},
      {"measurement": "MIC", "setting": "[3]; [22]", "value": 14.6, "unit": "µg/mL"},
      {"measurement": "increased lag phase", "setting": "[3]; ppm of the active component", "value": 4.3, "unit": "ppm"},
      {"measurement": "MBC", "setting": "[4]; [23]", "value": 14.6, "unit": "µg/mL"},
      {"measurement": "MIC", "setting": "[4]; [23]", "value": 14.6, "unit": "µg/mL"},
      {"measurement": "increased lag phase", "setting": "[4]; ppm of the active component", "value": 10.5, "unit": "ppm"},
      {"measurement": "MBC", "setting": "[5]; [24]", "value": 9.7, "unit": "µg/mL"},
      {"measurement": "MIC", "setting": "[5]; [24]", "value": 8.1, "unit": "µg/mL"},
      {"measurement": "increased lag phase", "setting": "[5]; ppm of the active component", "value": 4.3, "unit": "ppm"},
      {"measurement": "MBC", "setting": "[6]; Metschnikowia pulcherrima", "value": 14.6, "unit": "µg/mL"},
      {"measurement": "MIC", "setting": "[6]; Metschnikowia pulcherrima", "value": 9.7, "unit": "µg/mL"},
      {"measurement": "increased lag phase", "setting": "[6]", "value": 6.5, "unit": "ppm"},
      {"measurement": "MBC", "setting": "[7]; [25]", "value": 4.3, "unit": "µg/mL"},
      {"measurement": "MIC", "setting": "[7]; [25]", "value": 4.3, "unit": "µg/mL"},
      {"measurement": "increased lag phase", "setting": "[7]; ppm of the active component", "value": 4.3, "unit": "ppm"},
      {"measurement": "MBC", "setting": "[8]; [26]", "value": 21.9, "unit": "µg/mL"},
      {"measurement": "MIC", "setting": "[8]; [26]", "value": 18.2, "unit": "µg/mL"},
      {"measurement": "increased lag phase", "setting": "[8]; ppm of the active component", "value": 8.1, "unit": "ppm"},
      {"measurement": "MBC", "setting": "[9]; [27]", "value": 14.9, "unit": "µg/mL"},
      {"measurement": "MIC", "setting": "[9]; [27]", "value": 9.7, "unit": "µg/mL"},
      {"measurement": "increased lag phase", "setting": "[9]; ppm of the active component", "value": 6.5, "unit": "ppm"},
      {"measurement": "MBC", "setting": "[10]; Clostridium sporogenes", "value": 14.6, "unit": "µg/mL"},
      {"measurement": "MIC", "setting": "[10]; Clostridium sporogenes", "value": 9.7, "unit": "µg/mL"},
      {"measurement": "increased lag phase", "setting": "[10]", "value": 9.7, "unit": "ppm"},
      {"measurement": "MBC", "setting": "[11]; Clostridium sporogenes", "value": 18.3, "unit": "µg/mL"},
      {"measurement": "MIC", "setting": "[11]; Clostridium sporogenes", "value": 8.1, "unit": "µg/mL"},
      {"measurement": "increased lag phase", "setting": "[11]", "value": 8.1, "unit": "ppm"},
      {"measurement": "MBC", "setting": "[12]; Clostridium sporogenes", "value": 8.1, "unit": "µg/mL"},
      {"measurement": "MIC", "setting": "[12]; Clostridium sporogenes", "value": 4.3, "unit": "µg/mL"},
      {"measurement": "increased lag phase", "setting": "[12]", "value": 4.3, "unit": "ppm"},
      {"measurement": "MBC", "setting": "[13]; [28]", "value": 9.7, "unit": "µg/mL"},
      {"measurement": "MIC", "setting": "[13]; [28]", "value": 9.7, "unit": "µg/mL"},
      {"measurement": "increased lag phase", "setting": "[13]; ppm of the active component", "value": 9.7, "unit": "ppm"},
      {"measurement": "MBC", "setting": "[14]; [29]", "value": 9.7, "unit": "µg/mL"},
      {"measurement": "MIC", "setting": "[14]; [29]", "value": 9.7, "unit": "µg/mL"},
      {"measurement": "increased lag phase", "setting": "[14]; ppm of the active component", "value": 9.7, "unit": "ppm"},
      {"measurement": "MBC", "setting": "[15]; [30]", "value": 9.7, "unit": "µg/mL"},
      {"measurement": "MIC", "setting": "[15]; [30]", "value": 9.7, "unit": "µg/mL"},
      {"measurement": "increased lag phase", "setting": "[15]; ppm of the active component", "value": 9.7, "unit": "ppm"},
      {"measurement": "MBC", "setting": "[16]; [31]", "value": 4.3, "unit": "µg/mL"},
      {"measurement": "MIC", "setting": "[16]; [31]", "value": 4.3, "unit": "µg/mL"},
      {"measurement": "increased lag phase", "setting": "[16]; ppm of the active component", "value": 4.3, "unit": "ppm"},
      {"measurement": "MBC", "setting": "[17]; [32]", "value": 21.9, "unit": "µg/mL"},
      {"measurement": "MIC", "setting": "[17]; [32]", "value": 21.9, "unit": "µg/mL"},
      {"measurement": "increased lag phase", "setting": "[17]; ppm of the active component", "value": 18.2, "unit": "ppm"},
      {"measurement": "MBC", "setting": "[18]; [33]", "value": 27.4, "unit": "µg/mL"},
      {"measurement": "MIC", "setting": "[18]; [33]", "value": 21.9, "unit": "µg/mL"},
      {"measurement": "increased lag phase", "setting": "[18]; ppm of the active component", "value": 10.5, "unit": "ppm"},
      {"measurement": "MBC", "setting": "[19]; [34]", "value": 41, "unit": "µg/mL"},
      {"measurement": "MIC", "setting": "[19]; [34]", "value": 32.8, "unit": "µg/mL"},
      {"measurement": "increased lag phase", "setting": "[19]; ppm of the active component", "value": 18.2, "unit": "ppm"},
      {"measurement": "MBC", "setting": "[20]", "value": "> 166", "unit": "µg/mL"}
    ]}
  ]
}
